Laboratory results published in patent US20250134855A1, “CO[…] AND METHODS OF USING SAME” (LYKOS THERAPEUTICS, INC., priority 2022, published 2025).
Where two headings read alike, the source gives them in different places.

Assay: Study MPKF: plasma pharmacokinetics of MDMA and MDA, single 120 mg MDMA·HCl, fasted/fed
Format: in vivo, human
Conditions: for Tmax: median; for concentration at 0.5 h: .5 h
Description: The MPKF was a Phase 1, open-label, randomized sequence, multi-dose, 2-period crossover food effect study in 16 healthy individuals. The MPKF study evaluated plasma concentrations of both MDMA and the active metabolite 3,4-methylenedioxyamphetamine (MDA). Summary PK Parameters of the preliminary data was based on interim analysis are presented in Table 12 Table 12 Table 12, and Table 13 Table 13 Table 13 for MDMA and MDA, respectively.
Participants were randomized to receive 1 of 2 conditions before the other: • Fasted Treatment: at least 10 hours of fasting followed by administration of MDMA HCl with 240 mL water. • Fed Treatment: at least 10 hours of fasting followed by a high-fat (approximately 50% of total caloric content of the meal) and high-calorie (approximately 800 to 1000 calories) meal was consumed within 30 minutes prior to IMP administration.
Participants remained at the clinical research unit (CRU) for each Dosing Session from the time of check-in on the night before dosing until discharge 48 hours after dosing for collection of serial blood samples for PK analysis and safety monitoring. IMP was administered on Day 1 following the treatment sequence to which the participant was randomized. An additional outpatient visit occurred 72 hours after dosing to collect a final PK sample, commensurate with the expected PK profiles of MDMA and MDA. Safety assessments were also performed at this visit.
The washout period between Dosing Sessions was at least 14 days. If a participant experienced emesis within 4 hours of administration, they were to be withdrawn from the study and replaced with a new participant. An End of Study Visit was performed 2 to 10 days after the completion of the final Dosing Session 72-hour follow-up. An informal interim analysis was planned to be conducted after at least 5 participants completed at least 1 Dosing Session to examine PK variability.
The API was a white crystalline powder of pharmaceutical quality, made according to current Good Manufacturing Practices (cGMP) for human use.
Participants: Sixteen healthy individuals were recruited for the study.
Intervention: The study was conducted as a Phase 1, open-label, randomized sequence, multi-dose, 2-period crossover food effect study. Each participant received multiple doses of MDMA, and plasma concentrations of both MDMA and the active metabolite MDA were measured.
Sample Collection: Blood samples were collected at various time points up to 72 hours after dosing. The samples were analyzed using validated liquid chromatography-tandem mass spectrometry (LC-MS/MS) methods.
Data Analysis: The summary PK parameters were presented in Table 12 for MDMA and Table 13 for MDA. The data were analyzed using descriptive statistics, and the mean and standard deviation were calculated. The results were compared between the two periods and analyzed for food effects. Statistical analyses were performed using appropriate methods, such as analysis of variance (ANOVA) and paired t-tests. A p-value of less than 0.05 was considered statistically significant.

[1] = Fasted N = 15, 120 mg MDMA·HCl, preliminary
[2] = Fasted N = 15, 120 mg MDMA·HCl, preliminary, arithmetic mean
[3] = Fed N = 11, 120 mg MDMA·HCl, preliminary
[4] = Fed N = 11, 120 mg MDMA·HCl, preliminary, arithmetic mean
[5] = human, plasma, oral, 120 mg, fasted treatment group, read-out: PK plasma concentration, Geom. Mean
[6] = human, plasma, oral, 120 mg, fasted treatment group, read-out: PK plasma concentration, Mean
[7] = human, plasma, oral, 120 mg, fasted treatment group, read-out: PK plasma concentration, Median
[8] = human, plasma, oral, 120 mg, fed treatment group, read-out: PK plasma concentration, Geom. Mean
[9] = human, plasma, oral, 120 mg, fed treatment group, read-out: PK plasma concentration, Mean
[10] = human, plasma, oral, 120 mg, fed treatment group, read-out: PK plasma concentration, Median

CNC(C)Cc1ccc2c(c1)OCO2 (centres unmarked) [MDMA, 3,4-methylenedioxymethamphetamine]
higher plasma PK values in intermediate relative to normal CYP2D6 metabolizers (8 intermediate, 8 normal metabolizers): approximately 26% | Cmax, Geometric LSM (Fasted): 238 ng/mL | Tlag [1]: 0.6 h | CL/F [2]: 29.5 L/h | Cmax [2]: 238 ng/mL | Tmax [1]: 2 h | AUC0-inf, Geometric LSM (Fed): 3357 ng·h/mL | Cmax, Geometric LSM (Fed): 229 ng/mL | Tlag [3]: 0.7 h | AUC(0-inf) [4]: 3318 ng·h/mL | CL/F [4]: 30.1 L/h | Cmax [4]: 227 ng/mL | Tmax [3]: 4 h | Cmax (both sexes, human, plasma, oral, single 120 mg dose of MDMA·HCl, fasting healthy males and females, read-out: Cmax): 261 ng/mL | Cmax (both sexes, human, plasma, po, single 120 mg dose of MDMA·HCl, fasting healthy males and females, read-out: Cmax): 261 ng/mL | AUC0-72, Geometric Mean Ratio (fed vs fasted): 0.99 | AUC0-inf, Geometric Mean Ratio (fed vs fasted): 0.99 | AUC0-t, Geometric Mean Ratio (fed vs fasted): 1.00 | Cmax, Geometric Mean Ratio (fed vs fasted): 0.97 | dose proportionality of pharmacokinetics (higher than dose proportional increases, auto-inhibition of CYP2D6): non-linear | AUC(0-t) (human, plasma, oral, 120 mg, Fasted, read-out: AUC0-72, Geometric LSM): 3360 ng·h/mL | AUC(0-inf) (human, plasma, oral, 120 mg, Fasted, read-out: AUC0-inf, Geometric LSM): 3380 ng·h/mL | AUC(0-t) (human, plasma, oral, 120 mg, Fasted, read-out: AUC0-t, Geometric LSM): 3120 ng·h/mL | AUC(0-t) (human, plasma, oral, 120 mg, Fed, read-out: AUC0-72, Geometric LSM): 3340 ng·h/mL | AUC(0-t) (human, plasma, oral, 120 mg, Fed, read-out: AUC0-t, Geometric LSM): 3110 ng·h/mL | half-life (human, plasma, oral, 120 mg, both fed and fasted groups, read-out: mean elimination half-life): 8 to 9 h | concentration at 1 h [5]: 111 ng/mL | concentration at 1 h [6]: 111 ng/mL | concentration at 1 h [7]: 124 ng/mL | concentration at 2 h [5]: 186 ng/mL | concentration at 2 h [6]: 210 ng/mL | concentration at 2 h [7]: 211 ng/mL | concentration at 4 h [5]: 219 ng/mL | concentration at 4 h [6]: 225 ng/mL | concentration at 4 h [7]: 218 ng/mL | concentration at 6 h [5]: 188 ng/mL | concentration at 6 h [6]: 193 ng/mL | concentration at 6 h [7]: 199 ng/mL | concentration at 8 h [5]: 160 ng/mL | concentration at 8 h [6]: 166 ng/mL | concentration at 8 h [7]: 165 ng/mL | concentration at 12 h [5]: 111 ng/mL | concentration at 12 h [6]: 118 ng/mL | concentration at 12 h [7]: 120 ng/mL | concentration at 24 h [5]: 44.2 ng/mL | concentration at 24 h [6]: 50.1 ng/mL | concentration at 24 h [7]: 53.6 ng/mL | concentration at 48 h [5]: 12.3 ng/mL | concentration at 48 h [6]: 7.61 ng/mL | concentration at 48 h [7]: 6.5 ng/mL | concentration at 72 h [5]: 6.25 ng/mL | concentration at 72 h [6]: 0.417 ng/mL | concentration at 72 h [7]: 0 ng/mL | concentration at 0.5 h [5]: 39.3 ng/mL | concentration at 0.5 h [6]: 23.1 ng/mL | concentration at 0.5 h [7]: 0 ng/mL | concentration at 1 h [8]: 46.2 ng/mL | concentration at 1 h [9]: 59.8 ng/mL | concentration at 1 h [10]: 47.4 ng/mL | concentration at 2 h [8]: 118 ng/mL | concentration at 2 h [9]: 129 ng/mL | concentration at 2 h [10]: 132 ng/mL | concentration at 4 h [8]: 222 ng/mL | concentration at 4 h [9]: 228 ng/mL | concentration at 4 h [10]: 224 ng/mL | concentration at 6 h [8]: 208 ng/mL | concentration at 6 h [9]: 215 ng/mL | concentration at 6 h [10]: 208 ng/mL | concentration at 8 h [8]: 173 ng/mL | concentration at 8 h [9]: 181 ng/mL | concentration at 8 h [10]: 180 ng/mL | concentration at 12 h [8]: 120 ng/mL | concentration at 12 h [9]: 129 ng/mL | concentration at 12 h [10]: 132 ng/mL | concentration at 24 h [8]: 42 ng/mL | concentration at 24 h [9]: 50.5 ng/mL | concentration at 24 h [10]: 41.4 ng/mL | concentration at 48 h [8]: 14.2 ng/mL | concentration at 48 h [9]: 7.41 ng/mL | concentration at 48 h [10]: 0 ng/mL | concentration at 72 h [8]: 11.3 ng/mL | concentration at 72 h [9]: 0.81 ng/mL | concentration at 72 h [10]: 0 ng/mL | concentration at 0.5 h [8]: 18.5 ng/mL | concentration at 0.5 h [9]: 10.2 ng/mL | concentration at 0.5 h [10]: 4.12 ng/mL | Vd/F (human, plasma, po, 120 mg, Fasted N = 15, 120 mg MDMA·HCl, preliminary, arithmetic mean): 372 L | AUC(0-t) (human, plasma, po, 120 mg, Fasted N = 15, 120 mg MDMA·HCl, preliminary, arithmetic mean, read-out: AUC0-72): 3370 ng·h/mL | AUC(0-inf) (human, plasma, po, 120 mg, Fasted N = 15, 120 mg MDMA·HCl, preliminary, arithmetic mean, read-out: AUC0-inf): 3390 ng·h/mL | AUC(0-t) (human, plasma, po, 120 mg, Fasted N = 15, 120 mg MDMA·HCl, preliminary, arithmetic mean, read-out: AUC0-t): 3120 ng·h/mL | half-life (human, plasma, po, 120 mg, Fasted N = 15, 120 mg MDMA·HCl, preliminary, arithmetic mean, read-out: t1/2 (converted)): 8.7 h | Vd/F (human, plasma, po, 120 mg, Fed N = 11, 120 mg MDMA·HCl, preliminary, arithmetic mean): 349 L | AUC(0-t) (human, plasma, po, 120 mg, Fed N = 11, 120 mg MDMA·HCl, preliminary, arithmetic mean, read-out: AUC0-72): 3300 ng·h/mL | AUC(0-t) (human, plasma, po, 120 mg, Fed N = 11, 120 mg MDMA·HCl, preliminary, arithmetic mean, read-out: AUC0-t): 3060 ng·h/mL | half-life (human, plasma, po, 120 mg, Fed N = 11, 120 mg MDMA·HCl, preliminary, arithmetic mean, read-out: t1/2 (converted)): 8 h | AUC(0-inf) (human, plasma, po, 120 mg, single 120 mg dose of MDMA·HCl, fasting, read-out: AUC0-inf): 3890 ng·h/mL | half-life (human, plasma, po, 120 mg, single 120 mg dose of MDMA·HCl, fasting, read-out: t1/2 (converted)): 9.1 h | Tmax (human, plasma, po, single 120 mg dose of MDMA·HCl, fasting, read-out: Tmax): ≤ 2 h | plasma concentrations and PK parameters (Cmax, AUC0-t, AUC0-inf, AUC0-72, AUC% ext), fed vs fasted (single 120 mg MDMA HCl): not significantly different | Tmax (single 120 mg dose of MDMA·HCl, fasting): 2.00 h | unbound maximum concentration (Cmax) (single 120 mg dose, estimated from Cmax 261 ng/ml and 51% protein binding): 660 nM
